According to publication PMC12250347, “Calcium-dependent pathway as a primary cause of hypoxic RGC damage in monkey retinal explants” (PLOS One, 2025):

System: calpains 1 and 2 in monkey retinal lysate
Assay: In vitro inhibitory assay of calpains from retinal lysate (CaCl2, immunoblotting)
Format: biochemical
Settings: non-cultured monkey retina lysate, 10 mM CaCl2, 2 hr, 37°C; inhibitor at 1, 10 and 100 µM
Procedure: Each retinal explant was sonicated in RIPA Lysis and Extraction Buffer (Thermo Fisher Scientific), with protease inhibitors cocktail (Complete Mini-EDTA-free; MilliporeSigma). Protein concentrations in lysates were measured by BCA assay (Pierce BCA Protein Assay Kit, Thermo Fisher Scientific) using bovine serum albumin as a standard. For immunoblotting, 5 μg of each sample was loaded and run on 4% to 12% gradient or 10% SDS-PAGE gels (NuPAGE Bis-Tris Protein Gels, Thermo Fisher Scientific) with 2-(N-morpholino)ethanesulfonic acid buffer or 3-(N-morpholino) propanesulfonic acid buffer (Thermo Fisher Scientific). Proteins were then electrotransferred to a polyvinylidene fluoride membrane (MilliporeSigma) at 100 V for 60 min or 1.5 hr. Membranes were then blocked with 5% skim milk in Tris-buffer saline (Bio-Rad Laboratories, Hercules, CA, USA) containing 0.05% Tween 20. Each membrane was probed with primary antibodies against α-spectrin (1:2000 dilution, Enzo Life Sciences, Farmingdale, NY, USA), SBDP150 (1:1000 dilution, Senju Pharmaceutical), calpain 1 (1:1000 dilution, Thermo Fisher Scientific), calpain 2 (1:500, GeneTex, Irvine, CA, USA), cathepsin K (1:500 dilution, Abcam), and β-actin (1:1000 dilution, Merck). For calpain 1, immunoreactivity was visualized using a secondary antibody conjugated to alkaline phosphatase and the AP Conjugate Substrate Kit (Bio-Rad Laboratories). For other proteins, immunoreactivities were visualized using secondary antibodies conjugated with rabbit (Santa Cruz Biotechnology) or mouse horseradish peroxidase enzyme (Cytiva, Wilmington, DE, USA) and ECL Plus detection reagents (Cytiva). Images of the membranes were captured with FluorChem FC2 imager (Cell Biosciences, Santa Clara, CA, USA). The conversion of pro-cathepsin K (38 kDa) to its mature form (27 kDa) was used as an indicator of cathepsin K activation.
To confirm the isozyme specificities of calpain inhibitors in vitro, non-cultured monkey retinas were sonicated in a buffer containing 20 mM Tris (pH 7.5), 5 mM EGTA, 5 mM EDTA, 2 mM DTE. […]

## COCCOCCOC(=O)N[C@@H](CC(C)C)C(=O)N[C@@H](Cc1ccccc1)C(=O)C(=O)NC1CC1 [SNJ-1945]
  Effect on calcium-induced activation (autolysis) of calpains 1 and 2 and SBDP150 in retinal lysate: inhibited the activation of both calpain 1 and calpain 2 in a dose-dependent manner
